Experimental data reported in US11130741B2 (Bioimics AB, priority 2016, dated 2021).
In brackets after ≈: the same amount, converted by molar mass. Read-outs that look alike come from different tables or passages of the source.

Key:
[1] = test system: Staphylococcus aureus (ATCC25923); assay: MIC, broth microdilution (CLSI), Staphylococcus aureus ATCC25923; conditions: ATCC25923, read-out: S. aureus ("Clinical") MIC
Description: (§1) Initial minimal inhibitory concentration (MIC) tests were made on two bacterial strains: • Escherichia coli (ATCC25922) • Staphylococcus aureus (ATCC25923).
Minimal Inhibitory Concentration (MIC)
(§2) MIC values were determined using the standard broth microdilution procedure based on the guidelines by the Clinical and Laboratory Standards Institute (CLSI). Briefly, the compounds were dissolved in DMSO to 10 mM. They were diluted in cation-adjusted Mueller-Hinton broth (CAMHB) to four times the highest concentration tested. A serial 2-fold dilution in CAMHB was done in microdilution plates. The inoculum of bacterial strain to be tested was prepared by making a suspension of colonies from an 18 to 24 hours old plate in CAMHB. The inoculum was diluted so that, after inoculation, each well contained approximately 5×10^5 CFU/mL. To a volume of 50 μl compound in CAMHB an equal volume of inoculum was added. The tray was sealed in a plastic bag and incubated at 35° C. for 16 to 20 hours. To aid in the detection of growth the dye resazurin was added to a final concentration 0.001% and incubated at room temperature for 1 h. Reduction of resazurin, and therefore bacterial growth, was seen as a change from blue to pink.

[2] = test system: E. coli RNase P RNA, M1 RNA; assay: Initial inhibition of RNase P activity (normalised cleavage of pATSerUG at maximum compound concentration); type: biochemical; conditions: normalised cleavage (cleavage with compound / without compound)
[3] = test system: Escherichia coli (ATCC25922); assay: MIC, broth microdilution (CLSI), Escherichia coli ATCC25922
Description: as §1
Minimal Inhibitory Concentration (MIC)
as §2

[4] = test system: P. aeruginosa NTUH-974 (MDR); assay: MIC, P. aeruginosa NTUH-974 (MDR); type: cell-based; conditions: Pseudomonas aeruginosa; read-out: MIC P. aeruginosa NTUH-974 (MDR)
M. fortuitum ATCC 110 = assay: MIC, M. fortuitum ATCC 110; type: cell-based; conditions: Mycolicibacterium fortuitum, ATCC110
[5] = test system: S. aureus MRSA ATCC 33591; assay: MIC, S. aureus MRSA ATCC 33591; type: cell-based; conditions: Staphylococcus aureus; read-out: MIC S. aureus MRSA ATCC 33591
[6] = test system: Pseudomonas aeruginosa (ATCC27853); assay: microbe, parasite or virus in culture; type: cell-based; conditions: read-out: MIC P. aeruginosa ATCC 27853
N. gonorrhoeae 612501 = assay: MIC, N. gonorrhoeae 612501; type: cell-based; conditions: Neisseria gonorrhoeae
H. pylori ATCC 43504 = assay: MIC, H. pylori ATCC 43504; type: cell-based; conditions: Helicobacter pylori, ATCC43504
[7] = test system: S. aureus USA300 MRSA BAA 1717; assay: MIC, S. aureus USA300 MRSA BAA 1717; type: cell-based; conditions: Staphylococcus aureus
S. aureus ATCC 29213 = assay: MIC, S. aureus ATCC 29213 + 50% HS; type: cell-based; conditions: Staphylococcus aureus, ATCC29213
E. coli JW5503 = assay: MIC, E. coli JW5503; type: cell-based; conditions: Escherichia coli, JW5503, read-out: MIC E. coli JW5503
A. baumannii ATCC 17978 = assay: MIC, A. baumannii ATCC 17978; type: cell-based; conditions: Acinetobacter baumannii, ATCC17978
H. influenzae ATCC 49247 = assay: MIC, H. influenzae ATCC 49247; type: cell-based; conditions: Haemophilus influenzae, ATCC49247
[8] = test system: E. coli RNase P RNA, M1 RNA; assay: Inhibition of bacterial RNase P activity, IC50 determination (cleavage of pATSerUG by M1 RNA); type: biochemical; conditions: NI = No inhibition
[9] = test system: Staphylococcus aureus subsp. aureus (ATCC29213); assay: MIC, broth microdilution (CLSI), Staphylococcus aureus subsp. aureus ATCC29213; type: cell-based
K. pneumoniae ATCC 43816 = assay: MIC, K. pneumoniae ATCC 43816; type: cell-based; conditions: Klebsiella pneumoniae, ATCC43816
E. faecium ATCC 700221 = assay: MIC, E. faecium ATCC 700221; type: cell-based; conditions: Enterococcus faecium, ATCC700221; read-out: MIC E. faecium ATCC 700221
[10] = test system: Enterococcus faecalis (ATCC29212); assay: MIC, broth microdilution (CLSI), Enterococcus faecalis ATCC29212; type: cell-based; conditions: read-out: MIC E. faecalis ATCC 29212
M. phlei ATCC 11758 = assay: MIC, M. phlei ATCC 11758; type: cell-based; conditions: Mycolicibacterium phlei, ATCC11758
S. pneumoniae ATCC 49619 = assay: MIC, S. pneumoniae ATCC 49619; type: cell-based; conditions: Streptococcus pneumoniae, ATCC49619
[11] = ATCC25922, read-out: E. coli MIC, Table 15, NI = No inhibition
[12] = ATCC29213, Table 15, read-out: S. aureus ("wound") (MIC)
[13] = ATCC29213, Table 16, read-out: MIC S. aureus ATCC 29213
[14] = ATCC25922, read-out: MIC E. coli ATCC 25922, Table 16

Row | SMILES | MIC [3, 11] | MIC [4] | MIC (M. fortuitum ATCC 110) | MIC [5] | MIC [6] | MIC (N. gonorrhoeae 612501) | MIC (H. pylori ATCC 43504) | MIC [7] | MIC (S. aureus ATCC 29213) | MIC (E. coli JW5503) | MIC (A. baumannii ATCC 17978) | MIC (H. influenzae ATCC 49247) | IC50 [8] | MIC [9, 12] | MIC [9, 13] | MIC (K. pneumoniae ATCC 43816) | MIC [3, 14] | MIC (E. faecium ATCC 700221) | MIC [10] | MIC (M. phlei ATCC 11758) | also measured
1 | CN(C)CCCN1c2ccccc2Sc2cc(C(F)(F)F)cc(N)c21 [compound 42, 10-(3-(dimethylamino)propyl)-3-(trifluoromethyl)-10H-phenothiazin-1-amine] | > 100 µg/mL | – | – | – | – | – | – | – | – | – | – | – | – | – | – | – | – | – | – | – | MIC [1]: 47 µg/mL (≈ 128 µM); Normalised RNase P cleavage (fraction of control) ([2]; at 8 μM): 1.02
2 | CC1CCN(c2ccc3c(c2)Sc2cc(C(F)(F)F)cc(NC4CCN(CCN)CC4)c2N3)CC1.Cl.Cl [compound 307, N-(1-(2-aminoethyl)piperidin-4-yl)-7-(4-methyl-piperidin-1-yl)-3-(trifluoromethyl)-10H-phenothiazin-1-amine hydrochloride] | 4 µg/mL | 16 µg/mL | 4 µg/mL | 2 µg/mL | 16 µg/mL | 1 µg/mL | 16 µg/mL | 2 µg/mL | 32 µg/mL | 2 µg/mL | 8 µg/mL | 2 µg/mL | 16 µM | 2 µg/mL | 2 µg/mL | 4 µg/mL | 4 µg/mL | 2 µg/mL | 2 µg/mL | 8 µg/mL | MIC (S. pneumoniae ATCC 49619): 8 µg/mL
3 | Cl.NC1CCCC(CNc2cc(C(F)(F)F)cc3c2Nc2ccc(N4CCCC4)cc2S3)C1 (stereo not shown) [compound 300, N-((3-aminocyclohexyl)methyl)-7-(pyrrolidin-1-yl)-3-(trifluoromethyl)-10H-phenothiazin-1-amine] | 16 µg/mL | > 32 µg/mL | 2 µg/mL | 1 µg/mL | > 32 µg/mL | 1 µg/mL | 16 µg/mL | 1 µg/mL | 16 µg/mL | 2 µg/mL | 8 µg/mL | 2 µg/mL | 1.9 µM | 1 µg/mL | 1 µg/mL | 8 µg/mL | 4 µg/mL | 1 µg/mL | 1 µg/mL | 4 µg/mL | MIC (S. pneumoniae ATCC 49619): 4 µg/mL
4 | CC1CC(C)CN(c2ccc3c(c2)Sc2cc(C(F)(F)F)cc(NC4CCN(CCN)CC4)c2N3)C1.Cl.Cl.Cl (stereo not shown) [compound 274, N-(1-(2-aminoethyl)piperidin-4-yl)-7-(3,5-dimethyl-piperidin-1-yl)-3-(trifluoromethyl)-10H-phenothiazin-1-amine hydrochloride] | 8 µg/mL | 16 µg/mL | 4 µg/mL | 1 µg/mL | 16 µg/mL | 1 µg/mL | 16 µg/mL | 1 µg/mL | 16 µg/mL | 8 µg/mL | 4 µg/mL | 1 µg/mL | 24 µM | 1 µg/mL | 1 µg/mL | 4 µg/mL | 4 µg/mL | 1 µg/mL | 2 µg/mL | 4 µg/mL | MIC (S. pneumoniae ATCC 49619): 4 µg/mL
5 | CCN(CC)c1ccc2c(c1)Sc1cc(C(F)(F)F)cc(NC3CCN(CCN)CC3)c1N2.Cl.Cl.Cl [compound 306, N1-(1-(2-aminoethyl)piperidin-4-yl)-N7,N7-diethyl-3-(trifluoromethyl)-10H-phenothiazine-1,7-diamine hydrochloride] | 4 µg/mL | 32 µg/mL | 4 µg/mL | 2 µg/mL | 32 µg/mL | 2 µg/mL | 32 µg/mL | 2 µg/mL | 8 µg/mL | 2 µg/mL | 8 µg/mL | 8 µg/mL | 50 µM | 2 µg/mL | 2 µg/mL | 4 µg/mL | 4 µg/mL | 2 µg/mL | 4 µg/mL | 8 µg/mL | MIC (S. pneumoniae ATCC 49619): 4 µg/mL
6 | Nc1cc(C(F)(F)F)cc2c1Nc1ccccc1S2 [compound 2, 3-(trifluoromethyl)-10H-phenothiazin-1-amine] | > 100 µg/mL | – | – | – | – | – | – | – | – | – | – | – | – | – | – | – | – | – | – | – | MIC [1]: 4 µg/mL (≈ 14.2 µM); Normalised RNase P cleavage (fraction of control) ([2]; at 8 μM): 0.42; Normalised RNase P cleavage (fraction of control) ([2]; at 10 μM): 0.84
7 | CC1CCCN(c2ccc3c(c2)Sc2cc(C(F)(F)F)cc(NC4CCN(CCN)CC4)c2N3)C1.Cl.Cl (stereo not shown) [compound 301, N-(1-(2-aminoethyl)piperidin-4-yl)-7-(3-methyl-piperidin-1-yl)-3-(trifluoromethyl)-10H-phenothiazin-1-amine hydrochloride] | 4 µg/mL | 16 µg/mL | 4 µg/mL | 2 µg/mL | 16 µg/mL | 1 µg/mL | 8 µg/mL | 2 µg/mL | 16 µg/mL | 2 µg/mL | 4 µg/mL | 2 µg/mL | 27 µM | 2 µg/mL | 4 µg/mL | 4 µg/mL | 4 µg/mL | 2 µg/mL | 2 µg/mL | 8 µg/mL | MIC (S. pneumoniae ATCC 49619): 4 µg/mL
8 | C[C@@H](N)CC(=O)Nc1cc(C(F)(F)F)cc2c1Nc1ccccc1S2 [compound 67, (R)-3-amino-N-(3-(trifluoromethyl)-10H-phenothiazin-1-yl)butanamide] | 13 µg/mL (≈ 35.4 µM) | – | – | – | – | – | – | – | – | – | – | – | > 100 µM | – | – | – | – | – | – | – | MIC [1]: 13 µg/mL (≈ 35.4 µM); Normalised RNase P cleavage (fraction of control) ([2]; at 8 μM): 0.19
9 | C=CC(=O)N(CCCN(C)C)c1cc(C(F)(F)F)cc2c1Nc1ccccc1S2 [compound 39, N-(3-(dimethylamino)propyl)-N-(3-(trifluoromethyl)-10H-phenothiazin-1-yl)acrylamide] | > 100 µg/mL | – | – | – | – | – | – | – | – | – | – | – | 76 µM | – | – | – | – | – | – | – | MIC [1]: 27 µg/mL (≈ 64.1 µM); Normalised RNase P cleavage (fraction of control) ([2]; at 8 μM): 0.58
10 | Cl.Cl.NCCN1CCC(Nc2cc(C(F)(F)F)cc3c2Nc2ccc(N4CCCC4)cc2S3)CC1 [compound 284, N-(1-(2-aminoethyl)piperidin-4-yl)-7-(pyrrolidin-1-yl)-3-(trifluoromethyl)-10H-phenothiazin-1-amine hydrochloride] | 8 µg/mL | 32 µg/mL | 8 µg/mL | 2 µg/mL | 32 µg/mL | 2 µg/mL | 32 µg/mL | 2 µg/mL | 32 µg/mL | 4 µg/mL | 8 µg/mL | 8 µg/mL | 0.89 µM | 2 µg/mL | 2 µg/mL | 4 µg/mL | 4 µg/mL | 2 µg/mL | 2 µg/mL | 4 µg/mL | MIC (S. pneumoniae ATCC 49619): 8 µg/mL
11 | Cl.Cl.NCCNCCC(=O)Nc1cc(C(F)(F)F)cc2c1Nc1ccc(N3CCCC3)cc1S2 [compound 302, 3-((2-aminoethyl)amino)-N-(7-(pyrrolidin-1-yl)-3-(trifluoromethyl)-10H-phenothiazin-1-yl)propanamide hydrochloride] | 128 µg/mL | 32 µg/mL | 8 µg/mL | 8 µg/mL | 32 µg/mL | 8 µg/mL | 32 µg/mL | 8 µg/mL | 64 µg/mL | 16 µg/mL | 32 µg/mL | 16 µg/mL | 3.6 µM | 32 µg/mL | 8 µg/mL | 16 µg/mL | 16 µg/mL | 4 µg/mL | 8 µg/mL | 16 µg/mL | MIC (S. pneumoniae ATCC 49619): 64 µg/mL
12 | NCCC(=O)Nc1cc(C(F)(F)F)cc2c1Nc1ccccc1S2 [compound 30, 3-amino-N-(3-(trifluoromethyl)-10H-phenothiazin-1-yl)propanamide] | 16 µg/mL (≈ 45.3 µM) | – | – | – | – | – | – | – | – | – | – | – | > 100 µM | – | – | – | – | – | – | – | MIC [1]: 8 µg/mL (≈ 22.6 µM); Normalised RNase P cleavage (fraction of control) ([2]; at 8 μM): 0.49
